Entries after “also recorded” stand apart in the source; their conditions may differ.

Holding throughout (type): cell-based, mice
The subject of one experiment is IL-2. Kind of experiment: IL-2 content of culture supernatants by CTLL-2 bioassay. To be noted: cells expressing the construct; OVA peptide antigen or antigen plus anti-CD28 (1.0 μg/ml); supernatant at 48 hours. The protocol: FIG. 3 contains three bar graphs. Splenocytes from CD28-deficient DO11.10 mice were infected with retrovirus encoding either control (GFPRV) or wild type CD28 (FLCD28) or mutant CD28 constructs and stimulated with OVA(323-339) peptide alone, with CTLA4Ig (10 μg/ml) or with anti-CD28 mAb (1.0 μg/ml). Culture supernatant was harvested at 48 hours and assessed for IL-2 by CTLL-2 bioassay. Shown is the tritiated thymidine incorporation of the CTLL-2 cells. The mean +/−the std deviation of quadruplicate wells is plotted. Data from one representative experiment is shown. A) CTLL-2 assay following stimulation with 0.1 μM OVA. B) CTLL-2 assay following stimulation with 0.03 μM OVA.
Proliferation assays: Wild type or CD28-deficient DO11.10 splenocytes were isolated and infected with retrovirus encoding for either vector alone, full-length CD28, or mutant CD28 proteins. 5×10^4 infected cells were cocultured with 1.5×10^5 T-depleted, irradiated splenocytes from Balb/c mice. Graded doses of OVA(323-339) peptide were added alone or in combination with murine CTLA4Ig (10 μg/ml, provided by Genetics Institute, Cambridge Mass.), anti-CD28 mAb (1.0 μg/ml) or control Ig. Proliferation was determined by tritiated thymidine incorporation for the final 8 hours of a 72 hour culture. All conditions were plated in quadruplicate and the mean +/− standard deviation of the quadruplicate wells was determined. Culture supernatants were harvested from replicate plates at 48 hours and were assayed for IL-2 content by CTLL-2 bioassay. All experiments were repeated a minimum of three times. Representative data from one experiment is presented.
CD28 regulates IL-2 by both transcriptional and post-transcriptional processes (Fraser, J. D., etal., 1991. CD28. Science 251:313. Lindsten, T., et al 1989. Science 244:339). […]

Experiment [1] relates to CD28-deficient DO11.10 splenocytes (T cells). The experiment can be described thus: Proliferation assay: tritiated thymidine incorporation of retrovirally infected splenocytes stimulated with OVA(323-339) peptide and APC. To be noted: CD28-deficient T cells reconstituted with the construct; for CD28-dependent proliferation: OVA(323-339) peptide plus T-depleted irradiated Balb/c splenocytes, final 8 h of 72 h culture.

For another experiment, the system named is Bcl-XL. The experiment can be described thus: Bcl-XL expression by Western blot in retrovirally infected T cells. To be noted: cells expressing the construct, anti-CD3 (10 μg/ml) alone or with soluble anti-CD28 (1.0 μg/ml). A general note: Immunoblotting shows a protein as a band on a membrane.

As to “CD28P187,190A: CD28 mutant with alanine instead of proline residues at position 187 and 190 (SEQ ID NO: 7) (IWTNSRRLLQSDYMNMTPRRPGLTRKPYQAYAAARDFAAYRP; listed as Homo sapiens)”, the IL-2 secretion entry in the experiment on IL-2 is reported as “marked decrease in IL-2 secretion”. Moreover, the CD28-dependent proliferation entry in experiment [1] is given as “abrogated CD28-dependent proliferation”. The “induction of Bcl-XL protein” value in the experiment on Bcl-XL is “Bcl-XL induction was induced”; in the experiment on Bcl-XL (listed as CD28PI 87,190A) it was “increased Bcl-XL expression”.
As for “CD28Y188F: CD28 mutant which lacked the tyrosine within the PYAP motif (SEQ ID NO: 8) (IWTNSRRLLQSDYMNMTPRRPGLTRKPYQPFAPARDFAAYRP; listed as Homo sapiens)”, in the experiment on IL-2, the IL-2 secretion result is listed as “comparable to wild type”. In addition, the CD28-dependent proliferation entry in experiment [1] is recorded as “less effect”.
Turning to “CD28d16: CD28 mutant with deletion of the C-terminal 16 amino acids (SEQ ID NO: 5) (IWTNSRRLLQSDYMNMTPRRPGLTRK; listed as Homo sapiens)”, the CD28-dependent proliferation result in experiment [1] is on record as “did not produce any significant CD28-dependent proliferation”. The “induction of Bcl-XL protein” value in the experiment with Bcl-XL is given as “unable to induce Bcl-XL induction”.
For “FLCD28: full-length wild type murine CD28 expressed by retrovirus (SEQ ID NO: 3) (IWTNSRRLLQSDYMNMTPRRPGLTRKPYQPYAPARDFAAYRP; listed as Homo sapiens)”, in that order: “strong proliferative response” and “CD28-dependent induction of Bcl-XL protein”.
As for “CD28Y170F: mutant CD28 with phenylalanine substituted for the tyrosine at position 170 (SEQ ID NO: 6) (IWTNSRRLLQSDFMNMTPRRPGLTRKPYQPYAPARDFAAYRP; listed as Homo sapiens)”, the IL-2 secretion entry with IL-2 was “comparable to wild type; also recorded: equivalent levels as cells reconstituted with wild type CD28”. Besides, the CD28-dependent proliferation entry in experiment [1] is “appeared normal”. For the same substance, in experiment [1] (multiple experiments (FIG. 2B)), the “CD28-dependent proliferation, % proliferation of controls” value is listed as 60-80%. Moreover, the “induction of Bcl-XL protein” value in the experiment with Bcl-XL is given as “unable to induce Bcl-XL induction”.

The values are drawn from patent US20030166502A1, “Differential regulation of T cell survival and proliferation” (Washington University, priority 2001, published 2003).
